Columns and labels:
Assay type in all cases: cell-based, Human
[1] = system: intracellular nitric oxide (NO) in HUVECs; test: Intracellular NO production analysis (DAF-FM probe); details: L-NMMA (10 μM) with NTS, FIG. 6B
Experimental: Nitric oxide (NO) levels were confirmed by measuring fluorescence changes in 4-amino-5-methylamino-2′,7′-difluorofluorescein diacetate (DAF-FMDA, Thermo Fisher, D23844, Eugene, Oreg., USA) due to oxidation, respectively. Cells were cultured with reagents according to the manufacturer's instructions. Changes in DAF-FM fluorescence were measured by flow cytometry (BD Biosciences) and a fluorescence microscope (EVOS FL Auto, Thermo Fisher) after 24 hours. NG-methyl-L-arginine acetate salt (L-NMMA, Sigma, M7033) was used to suppress the production of nitric oxide (NO).

HUVEC tube formation = test: Tube formation analysis on Matrigel; details: L-NMMA (10 μM) with NTS, FIG. 6C
Experimental: HUVEC cells were trypsinized and then seeded onto a 96-well plate (2×10^4/well) pre-coated with 40 μl (10 mg/ml) of growth factor-reduced Matrigel (BD Biosciences, Billerica, Mass.) in an EBM2 medium.
After incubation at 37° C. for 30 minutes, 1 hour, 3 hours, and 6 hours, viable cells were detected by staining with Calcein AM (Trevigen, Gaithersburg, Md.), and then a capillary-like structure was imaged using EVOS FL Auto (ThermoFisher). Data in the images was quantified with National Institutes of Health (NIH) ImageJ 1.41q software.

eNOS (S1177) = test: Western blot, phosphorylated eNOS; details: FIG. 6A
Experimental: Western blot was performed using a known method. Cells were lysed in a RIPA buffer (Sigma Aldrich) including 150 mM NaCl, 1.0% Nonidet-P 40, 0.5% sodium deoxycholate, 0.1% sodium dodecyl sulfate, 50 mM Tri (pH 8.0), a protease inhibitor cocktail and PhoSTOP (Roche Molecular Biochemicals, Basel, Switzerland).
A primary antibody used in the present experiment was purchased from Cell Signaling (Danvers, Mass., USA) and VE-cadherin, p-LKB1, and LKB1 were purchased from Santa Cruz (Cambridge, UK). A secondary antibody (anti-rabbit IgG or anti-mouse IgG, 1:2000) was purchased from Cell Signaling Technology.
Data in the images was quantified with National Institutes of Health (NIH) ImageJ 1.41q software.

MMP-2 = test: Gelatin zymogram analysis; details: L-NMMA with NTS, FIG. 6F
Experimental: Matrix metalloproteases were analyzed using a known gelatin zymography method. The cells according to Example 2-1 were cultured in a 6-well plate (Corning Scientific, Rochester, N.Y., USA) and treated with NTS (60 sec/ml) or a vehicle control. Thereafter, the supernatant (100 μl) of each sample was mixed with 1 μl of 100 mM 4-aminophenylmercuric acetate (Sigma-Aldrich), and the sample was incubated at 37° C. for 1 hour. After each sample was placed in a sample buffer (excluding 2-mercaptoethanol) for 10 minutes, the samples were electrophoresed on an a 8% polyacrylamide gel containing 1% gelatin.
The gel was incubated at room temperature for 60 minutes in a regeneration buffer, and then incubated in 100 ml of a development buffer at 37° C. with gentle shaking. Thereafter, the gel was stained with Coomassie Brilliant Blue for 3 hours. After destaining with 400 ml of a destaining solution (methanol, 100 ml of acetic acid, 500 ml of distilled water), images were obtained using an image analyzer.

VE-cadherin = test: Immunocytochemical analysis, VE-cadherin; details: NTS+L-NMMA, FIG. 6G
Experimental: Immunocytochemical analysis was performed using a known method. The cells cultured according to Example 2-1 were additionally cultured on coverslips (Thermo Fisher Scientific, Rochester, N.Y., USA) and treated with NTS (60 sec/ml) or a vehicle control.
The coverslips were then treated with polyclonal rabbit anti-LC3B, p-FAK, and VE-Cadherin (1:200; Cell Signaling Technology, Danvers, Mass., USA), incubated for 2 hours, washed with PBS, and then incubated with an Alexa 488-labeled antibody for 1 hour.
Thereafter, after being washed three times with PBS, the slides were stained with Hoechst 33258 (Molecular Probe), and phalloidin (1:50; Molecular Probes, R415) was added thereto for 15 minutes to counterstain nuclei and F-actin. The stained coverslips were washed with PBS, mounted with Vectashield (Vector Laboratories, Inc., Burlingame, Calif., USA), and then analyzed using EVOS FL Auto (Thermo Fisher).

CC(=O)O.CNC(=N)NCCC[C@H](N)C(=O)O [L-NMMA, NG-methyl-L-arginine acetate salt]
intracellular nitric oxide by NTS [1]: significantly reduced
tubular network formed by NTS (HUVEC tube formation): significantly disrupted
p-eNOS phosphorylation by NTS (eNOS (S1177); L-NMMA (10 μM) with NTS): significantly reduced
phosphorylation of eNOS upregulated by NTS (eNOS (S1177); L-NMMA, 1 mM): significantly attenuated
NTS-activated MMP2 (MMP-2): significantly attenuated
NTS-induced reduction of VE-cadherin expression (VE-cadherin): significantly attenuated

— US20230142077A1, “COMPOSITION FOR PROMOTING ANGIOGENESIS USING LIQUID TYPE PLASMA AND METHOD FOR PROMOTING ANGIOGENESIS USING SAME” (AJOU UNIVERSITY INDUSTRY-ACADEMIC COOPERATION FOUNDATION, priority 2021, published 2023)
